pEC50: −log10 of the molar value. Counter-ions that a name gives are not always drawn. Like-named read-outs stand apart in the source and are kept apart here.
What was measured:
[1] = tested on: p53 signaling (p53RE-bla HCT-116 cells); conditions: for pEC50: read-out: p53 activation EC50
[2] = tested on: p53 signaling (p53RE-bla HCT-116 cells); experiment: cells; conditions: Homo sapiens
[3] = tested on: p53RE-bla HCT-116 cells
[4] = tested on: p53 signaling (p53RE-bla HCT-116 cells); experiment: cells; assay type: cell-based
[5] = tested on: p53 signaling (p53RE-bla HCT-116 cells)
[6] = tested on: p53 signaling (p53RE-bla HCT-116 cells); experiment: cells; conditions: Homo sapiens; remark: listed apart in the source
[7] = tested on: p53 signaling (p53RE-bla HCT-116 cells); experiment: cells; assay type: cell-based; conditions: for pEC50: Homo sapiens, HCT-116
[8] = tested on: p53 signaling (p53RE-bla HCT-116 cells); experiment: cells; assay type: cell-based; conditions: Homo sapiens; for pEC50: HCT-116, 0.5 h
[9] = HCT-116, read-out: p53 activation EC50, cherry pick confirmation
[10] = HCT-116, read-out: p53 activation efficacy, cherry pick confirmation
[11] = HCT-116, read-out: p53 activation efficacy
[12] = HCT-116, read-out: p53 activation EC50, primary screening
[13] = HCT-116, read-out: p53 activation efficacy, primary screening

SMILES | Viability EC50, cherry pick confirmation [3] | Viability EC50, primary screening [3] | Viability efficacy, cherry pick confirmation [3] | Viability efficacy, primary screening [3] | p53 activation EC50, primary screening [4] | p53 activation efficacy, primary screening [4] | pEC50 ([6]; HCT-116) | Emax ([6]; HCT-116, read-out: efficacy) | pEC50 [6, 9] | Emax [6, 10] | pEC50 [7] | pEC50 [8] | p53 activation EC50, cherry pick confirmation [5] | p53 activation efficacy, cherry pick confirmation [5] | p53 activation efficacy [1] | Viability EC50 [3] | Viability efficacy [3] | p53 activation EC50 [5] | p53 activation EC50 [4] | further results
N=C(N)NC(=O)c1nc(Cl)c(N)nc1N [Amiloride hydrochloride] | – | – | – | – | – | – | – | – | – | – | – | – | – | – | – | – | – | – | – | p53 activation EC50, RLM [1]: inactive; p53 activation Efficacy, RLM [1]: inactive; pEC50 ([2]; HCT-116, read-out: p53 activation EC50, HLM): 4.41; Viability EC50, HLM [3]: inactive; Viability EC50, No MS [3]: inactive; Viability EC50, RLM [3]: inactive; Viability Efficacy, HLM [3]: inactive; Viability Efficacy, No MS [3]: inactive; Viability Efficacy, RLM [3]: inactive; p53 activation EC50, No MS [4]: inactive; p53 activation Efficacy, No MS [4]: inactive; p53 activation EC50, HLM [5]: inactive
COP(N)(=S)Oc1ccccc1C(=O)OC(C)C (stereo not shown) [Isocarbophos] | inactive | inactive | inactive | inactive | inactive | inactive | 5.31 | 83.1% | 5.43 | 78.7% | 5.73 | 4.59 | inactive | inactive | – | – | – | – | – | pEC50 ([4]; Homo sapiens, HCT-116, read-out: p53 activation EC50, cherry pick confirmation): 5.69; Emax ([4]; Homo sapiens, HCT-116, read-out: p53 activation efficacy, cherry pick confirmation): 32.4%
Nc1ccc(-c2ccc(N)c(Cl)c2)cc1Cl [3,3'-Dichlorobenzidine] | – | – | – | – | – | – | – | – | – | – | – | – | – | – | inactive | inactive | inactive | inactive | – | p53 activation EC50 [1]: inactive; Emax [2, 11]: 33.9%; pEC50 ([4]; read-out: p53 activation EC50): 4.79
COP(=S)(OC)Oc1cc(Cl)c(Br)cc1Cl [Bromofos] | – | – | – | – | – | – | 4.75 | 66.6% | – | – | – | 4.79 | – | – | 62.741 | inactive | inactive | inactive | inactive | pEC50 [1]: 4.82; p53 activation efficacy [4]: inactive; EC50 [7]: Inactive; Emax ([8]; HCT-116, read-out: efficacy): 40.6%
Oc1c(Cl)c(Cl)c(Cl)c(Cl)c1Cl [Pentachlorophenol] | – | – | – | – | – | – | – | – | – | – | – | – | – | – | – | – | – | – | – | EC50, p53 activation, cherry pick confirmation [1]: inactive; EC50, p53 activation, primary screening [1]: inactive; Efficacy, p53 activation, cherry pick confirmation [1]: inactive; Efficacy, p53 activation, primary screening [1]: inactive; pEC50 ([2]; HCT-116, read-out: EC50, p53 activation, primary screening): 4.81; Emax ([2]; HCT-116, read-out: Efficacy, p53 activation, primary screening): 30.9%; EC50, viability, cherry pick confirmation [3]: inactive; EC50, viability, primary screening [3]: inactive; Efficacy, viability, cherry pick confirmation [3]: inactive; Efficacy, viability, primary screening [3]: inactive; pEC50 ([4]; Homo sapiens, HCT-116, read-out: EC50, p53 activation, cherry pick confirmation): 4.85; pEC50 ([4]; Homo sapiens, HCT-116, read-out: EC50, p53 activation, primary screening): 4.87; Emax ([4]; Homo sapiens, HCT-116, read-out: Efficacy, p53 activation, cherry pick confirmation): 32.5%; Emax ([4]; Homo sapiens, HCT-116, read-out: Efficacy, p53 activation, primary screening): 47.3%; EC50, p53 activation, cherry pick confirmation [5]: inactive; Efficacy, p53 activation, cherry pick confirmation [5]: inactive
C[C@]12CC[C@H]3[C@@H](CC[C@@]45O[C@@H]4C(O)=C(C#N)C[C@]35C)[C@@H]1CC[C@@H]2O [Trilostane] | – | – | – | – | – | – | – | – | – | – | – | – | – | – | inactive | inactive | inactive | inactive | inactive | p53 activation EC50 [1]: inactive; pEC50 ([2]; HCT-116, read-out: p53 activation EC50): 4.39; Emax [2, 11]: 53.3%; pEC50 ([4]; Homo sapiens, HCT-116, read-out: p53 activation EC50): 4.36; Emax ([4]; Homo sapiens, HCT-116, read-out: p53 activation efficacy): 98.3%
COP(=S)(OC)Oc1ccc([N+](=O)[O-])c(C)c1 [Fenitrothion] | inactive | inactive | inactive | inactive | inactive | inactive | 5.00 | 116% | 5.03 | 93.3% | 4.98 | 5.38 | inactive | inactive | – | – | – | – | – | p53 activation EC50, cherry pick confirmation [4]: inactive; p53 activation efficacy, cherry pick confirmation [4]: inactive; pEC50 [6, 12]: 5.59; Emax [6, 13]: 59.9%; p53 activation EC50, primary screening [5]: inactive; p53 activation efficacy, primary screening [5]: inactive
COP(=S)(OC)Oc1nc(Cl)c(Cl)cc1Cl [Chlorpyrifos-methyl] | inactive | inactive | inactive | inactive | inactive | inactive | 4.81 | 45% | 4.67 | 62.8% | 4.62 | 5.75 | inactive | inactive | – | – | – | – | – | p53 activation EC50, cherry pick confirmation [4]: inactive; p53 activation efficacy, cherry pick confirmation [4]: inactive; pEC50 [6, 12]: 4.96; Emax [6, 13]: 36.2%; p53 activation EC50, primary screening [5]: inactive; p53 activation efficacy, primary screening [5]: inactive
CCOP(=S)(OCC)SCSP(=S)(OCC)OCC [Ethion] | – | – | – | – | – | – | 5.21 | 53.8% | – | – | 5.48 | 5.23 | – | – | 48.0253 | inactive | inactive | inactive | inactive | pEC50 [1]: 5.69; p53 activation efficacy [4]: inactive
